The assay can be described thus: Use of the topical neuropathy relief formulation by patients (example cases). Format: in vivo, human. The following applies: Patient, severe debilitating neuropathy for six years; medications tried before the formulation; high doses of gabapentin. The source says:
The neuropathy relief formulation is applied in an amount sufficient to cover the affected area of clean dry skin. The neuropathy relief formulation is rubbed into the affected area until no cream remains visible on the surface. The formulation can be applied one, two, three or four times per day as needed for relief of symptoms.
The following example cases are from a few of the individuals who have been successfully treated with the claimed formulation

On to `NCC1(CC(=O)O)CCCCC1` [gabapentin], for which the “outcome of earlier medications for neuropathy” value is reported as “unsuccessful”. The value for `CCC(=O)C(CC(C)N(C)C)(c1ccccc1)c1ccccc1` (centres unmarked) [methadone] was “unsuccessful”.
